Experimental data published in the NIST ThermoML archive (doi:10.1021/acs.jced.6b00856).

Assay: mn = molality of the nth substance listed, in mol/kg
Conditions: 101.3 kPa, Liquid; for viscosity: Capillary tube (Ostwald / Ubbelohde) method; for mass density: Pycnometric method

C1CNCCN1 [piperazine] + O
Conditions | mass density, 303.15 K [kg/m3] | mass density, 313.15 K [kg/m3] | mass density, 323.15 K [kg/m3] | viscosity, 303.15 K [mPa·s] | viscosity, 313.15 K [mPa·s] | viscosity, 323.15 K [mPa·s]
m1 = 0.66 | 997.55 | 994.45 | 989.89 | 0.987 | 0.789 | 0.641
m1 = 1.1 | 999.58 | 995.73 | 991.34 | 1.169 | 0.916 | 0.747
m1 = 1.7 | 1002.4 | 998.08 | 993.64 | 1.456 | 1.124 | 0.893
